Laboratory results: PMC2646255 (Journal of medicinal chemistry, 2008)

Key:
[1] = target: T1, σ2 receptor (Rattus norvegicus, UniProt Q5U3Y7); assay: NIMH-PDSP binding screen
T1 sequence (Q5U3Y7 1-176): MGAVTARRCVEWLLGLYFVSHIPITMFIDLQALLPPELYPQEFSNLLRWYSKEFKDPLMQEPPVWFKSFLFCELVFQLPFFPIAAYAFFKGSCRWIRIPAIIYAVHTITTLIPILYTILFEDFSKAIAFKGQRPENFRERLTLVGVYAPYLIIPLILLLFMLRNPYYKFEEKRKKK

[2] = tested on: 5-HT2A receptor; assay: NIMH-PDSP binding screen; details: 10 μM
[3] = tested on: 5-HT2C receptor; assay: NIMH-PDSP binding screen; details: 10 μM
[4] = tested on: κ-opiate receptor; assay: NIMH-PDSP binding screen; details: 10 μM
[5] = target: σ1 receptor (Cavia porcellus, UniProt Q60492); assay: NIMH-PDSP binding screen; details: read-out: inhibition of binding
[6] = assay type: in vivo, rhesus monkeys (Macaca mulatta); details: 1 mg/kg i.v. at 30 min after [^11C]3, DCPQ-treated monkeys
[7] = monkey, DCPQ 8 mg/kg i.v.
[8] = tested on: P-gp; details: monkey, DCPQ 8 mg/kg or 16 mg/kg i.v. before [^11C]3
[9] = tested on: P-gp; details: P-gp knockout mouse brain; cited from earlier work

σ1 receptor, sequence (Q60492 whole entry): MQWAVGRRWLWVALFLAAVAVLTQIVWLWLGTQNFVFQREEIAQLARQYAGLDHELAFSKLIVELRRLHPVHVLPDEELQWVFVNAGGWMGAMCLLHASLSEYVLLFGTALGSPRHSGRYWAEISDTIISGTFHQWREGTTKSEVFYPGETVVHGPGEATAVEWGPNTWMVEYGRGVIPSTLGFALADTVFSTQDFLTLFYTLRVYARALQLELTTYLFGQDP

Structure (SMILES): CNC(=O)C(CCN1CCC(O)(c2ccc(Cl)cc2)CC1)(c1ccccc1)c1ccccc1 [Compound 3, 4-(4-(4-Chlorophenyl)-4-hydroxypiperidin-1-yl)-2,2-diphenyl-N-methyl-butanamide]
- Ki ([1]; Ki, σ2): < 10 nM
- inhibition at 10 µM ([1]; read-out: inhibition of binding): > 50%
- inhibition of binding [2]: < 50%
- inhibition of binding [3]: < 50%
- inhibition of binding [4]: < 50%
- inhibition at 10 µM [5]: > 50%
- effect on washout of radioactivity from brain [6]: no discernible effect

Structure (SMILES): Cl.Cl.Cl.O[C@@H](COc1cccc2ncccc12)CN1CCN(C2c3ccccc3C3C(c4ccccc42)C3(Cl)Cl)CC1 (stereo partly drawn) [DCPQ, (2R)-anti-5-{3-[4-(10,11-dichloromethanodibenzo-suber-5-yl)piperazin-1-yl]-2-hydroxypropoxy}quinoline trihydrochloride, reference compound]
- effect on rate at which each radiometabolite emerged in plasma [7]: little effect
- effect on uptake of radioactivity into pituitary [8]: no effect

Structure (SMILES): CN(C)C(=O)C(CCN1CCC(O)(c2ccc(Cl)cc2)CC1)(c1ccccc1)c1ccccc1 [loperamide, reference compound]
- effect on washout of radioactivity from brain [6]: no discernible effect

Structure (SMILES): CN([11CH3])C(=O)C(CCN1CCC(O)(c2ccc(Cl)cc2)CC1)(c1ccccc1)c1ccccc1 [[^11C]loperamide]
- unchanged radiotracer as share of radioactivity in brain [9]: ~ 50%
